According to the METLIN SMRT retention time set (Domingo-Almenara et al. 2019):

Assay: gradient 5% acetonitrile 3 min, to 50% in 2 min, to 85% in 15 min, held 3 min, 100 µL/min
Details: column: Zorbax Extend-C18 2.1 x 50 mm; eluents: water / acetonitrile, 0.1% formic acid
Summary of the method: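 Mixtures of ~100 pure standards were chromatographed on a Zorbax Extend-C18 column (2.1 × 50 mm, 1.8 μm) at 100 μL/min using water and acetonitrile, each with 0.1% formic acid. Detection used a quadrupole time-of-flight mass spectrometer in positive and negative ionization mode, and data collection spanned 3 months. Retention time was obtained from adduct peaks picked computationally and each checked manually.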

Compound | RP-LC retention time
OC1CCOC2(CCN(Cc3ccccc3OC(F)(F)F)CC2)C1 (centres undefined) | 602 s
CCn1c(=O)c2cc(C(N)=O)nn2c2ccccc21 | 653 s
O=C(NCc1ccccc1F)C1CCCN(c2nc3ccccc3n(Cc3ccccc3)c2=O)C1 (centres undefined) | 1150 s
CCOc1cc(=O)n2c(c1C(=O)Nc1ccc(SC)cc1)CCCC2 | 754 s
COc1ccc(OCc2noc(CNC(=O)c3ccccc3Cl)n2)cc1 | 793 s
CC1Oc2ccc(-c3csc(NC(=O)c4cccnc4)n3)cc2NC1=O (centres undefined) | 704 s
Cc1ccc(-c2nc3cnccn3c2Nc2cccc(C)c2C)cc1 | 1040 s
CCn1ccc(C(=O)Nc2cnc(N3CCCCC3)nc2)n1 | 778 s
CC(NC(=O)c1ccc2c(c1)OCO2)C(=O)Nc1nc2ccccc2[nH]1 (centres undefined) | 623 s
Cc1nnc(-c2ccc3ccn(CC(=O)NCc4ccc5c(c4)OCO5)c3c2)o1 | 756 s
Cc1ccc(OCc2nc(-c3cccc(-c4ccn[nH]4)c3)no2)cc1 | 778 s
CCC(C)NC(=O)C1CCN(C2=NS(=O)(=O)C(c3ccc(OC)cc3)=C2C)CC1 (centres undefined) | 795 s
COCCNC(=O)N1CCN(c2ncccc2-c2nnc(C(C)C)o2)CC1 | 627 s
CCOC(=O)Cc1c(C)nc2c(-c3ccccc3OC)c(C)nn2c1C | 943 s
COC(=O)c1c(NCc2ccccc2OC)c2cccc(Cl)c2[nH]c1=O | 820 s
CCC(=O)Nc1ccc(-n2cnc(C(=O)N3CC(C)CC(C)C3)c2)nc1 (centres undefined) | 772 s
CCc1nnc(-c2ccc3ccn(CC(=O)N4CCN(c5cccc(OC)c5)CC4)c3c2)o1 | 864 s
CC(C)CCNC(=O)Cn1c(=O)c2cnc(-c3ccc(Cl)cc3)nc2n(C)c1=O | 740 s
CCN(c1ccccc1)S(=O)(=O)c1cc(-c2[nH]ncc2C(=O)N(C)C)oc1C | 739 s
O=C(NCc1csc(C2CCCN(C(=O)C3CCCCC3)C2)n1)C1CCC1 (centres undefined) | 774 s
OCC1CN(c2ncccn2)CC12CCN(Cc1ccc(Cl)cc1F)CC2 (centres undefined) | 590 s
COCCCn1c(=O)c2ccccc2n(Cc2nc(-c3cccc(C(F)(F)F)c3)no2)c1=O | 1080 s
COc1ccc(CCC(=O)N2CCC(C(=O)NCCc3csc(-c4cccs4)n3)CC2)cc1 | 826 s

Compound | RP-LC retention time
CCOC(=O)c1ccc(NS(=O)(=O)c2cc3n(c2)CCN(C)C3=O)cc1 | 702 s
Cc1cccc(-c2noc(-c3nn(-c4cccc(F)c4)ccc3=O)n2)c1 | 928 s
Cc1cccc(NC(=O)Cn2c(-c3cnccn3)nc(C)c(C)c2=O)c1 | 707 s
N#Cc1cccc(NC(=O)N2CCC(c3cc(N)on3)CC2)c1 | 660 s
NC(=O)c1ccccc1OCC(=O)Nc1ccc(Cl)c(Cl)c1 | 895 s
COC(=O)c1cc(OCC(=O)Nc2ccc3c(c2)OCCO3)c2ccccc2n1 | 755 s
Cc1ccc2c(c1)cc(S(=O)(=O)c1ccccc1)c(=O)n2CC(=O)N1CCCCC1 | 919 s
COc1ccc(CCNC(=O)c2cccc3c2C(=O)N(CC2CCCO2)C3)c(OC)c1OC (centres undefined) | 875 s
Cc1nc2nc(-c3ccccc3)nn2c(C)c1CC(=O)N1CCCC1 | 679 s
CC(C)Cn1c(=O)c2cc(C(=O)NCCCn3cccn3)nn2c2ccccc21 | 831 s
CCn1cc(C(=O)Nc2ccc(C)c(C)c2)c2cccnc21 | 937 s
COc1ccccc1-c1c(C)nn2c(SCC(=O)NCCN(C)C)cc(C)nc12 | 622 s
CCN(CC)S(=O)(=O)c1ccc2c(c1)cc(C(=O)NCCCN1CCCC(C)C1)n2C (centres undefined) | 691 s
CCc1noc(C2(NC(=O)COc3ccc(Cl)cc3)CCCCC2)n1 | 1040 s
O=C(CSc1nccn1Cc1ccco1)NC1CCCCC1 | 589 s
Cc1ccc(CNC(=O)C2CCCN(c3cc(=O)n(C)c(=O)n3C)C2)cc1 (centres undefined) | 701 s
CCOc1ccccc1-c1nc(-c2ccc3nnn(CC)c3c2)no1 | 1110 s
CN(C)c1cccc(C(=O)N2CCN(C(=O)C3CC3c3ccc4c(c3)OCO4)CC2)c1 (centres undefined) | 715 s
CCN1C(=O)C(C)(C(=O)NCc2ccccc2Cl)Oc2cccnc21 (centres undefined) | 890 s
COc1ccccc1-c1nc(Cn2nnc(-c3nc(-c4cccc(C(F)(F)F)c4)no3)c2C)c(C)o1 | 1250 s
CNC(=O)[C@H]1O[C@@H](n2cnc3c(NCc4cccc(I)c4)nc(Cl)nc32)C(O)[C@H]1O (some centres undefined) | 768 s
CNC(=O)C1CCCN(C(=O)Nc2ccc(NC(=O)Nc3ccc(F)cc3)cc2)C1 (centres undefined) | 665 s
Cn1c(=O)c2cc(C(=O)N3CCN(c4ccccc4F)CC3)sc2n(C)c1=O | 765 s

Compound | RP-LC retention time
O=C(Nc1ccc(Cl)c(C(F)(F)F)c1)C1CCN(C(=O)C2Sc3ccccc3NC2=O)CC1 (centres undefined) | 948 s
CCOc1ccc(-c2noc(Cn3cnc4c(cnn4-c4ccc(CC)cc4)c3=O)n2)cc1OC | 1070 s
CCN(Cc1ccccc1)C(=O)C1CCN(c2ncnc3c2oc2ccccc23)CC1 | 871 s
NS(=O)(=O)c1ccc(NC(=O)Cc2cn(Cc3ccc(F)cc3)c3ccccc23)cc1 | 824 s
CCCSCCCNC(=O)COc1ccccc1-c1nnc(-c2ccccc2)o1 | 1160 s
CCCn1c(C)cnc1C1CN(S(=O)(=O)c2ccc(C)c(Cl)c2)C1 | 710 s
CNC(=O)c1ccc(-c2nc3cc(NS(=O)(=O)c4cc(Cl)ccc4OC)ccc3n2C)cc1 | 671 s
CCOCCCNC(=O)N1CCC(c2noc(-c3ccncc3)n2)C1 (centres undefined) | 643 s
O=C(COc1ccccc1Cl)N1CCN(c2cc(-c3ccccc3)ncn2)CC1 | 628 s
CCN(CC)c1ccc(NC(=O)Cn2cc3c(n2)CCCCC3)c(C)c1 | 674 s
Cc1nc(CSc2cc(C)c3ccccc3n2)cs1 | 969 s
Fc1ccc(N2CCN(Cc3nc(-c4ccccc4)no3)CC2)cc1 | 964 s
O=C(Cc1ccccc1)NCCc1nc2ccccc2[nH]1 | 545 s
CCn1c(=O)c(C(=O)NC2CCN(Cc3ccccc3)CC2)nc2cccnc21 | 606 s
CC1CCCN(c2ccc(-c3csc(S(=O)(=O)N4CCCCC4)c3)nn2)C1 (centres undefined) | 817 s
CCCCNC(=O)c1sc(Nc2cccc(C)n2)nc1C | 777 s
O=C(Nc1cccc(Cl)c1)C1CCN(c2cc(N3CCCC3)ncn2)CC1 | 714 s
Cc1sc2cc(C(=O)NC(C)C)[nH]c2c1CN1CCCCC1 | 643 s
Cc1ccc(Nc2c(-c3ccc(O)cc3)nc3ncccn23)cc1Cl | 690 s
C=CCn1c(=O)c2ccccc2n(Cc2nc(-c3ccc(Br)cc3)no2)c1=O | 1150 s
C=CCOc1c(CCC)cc(CCC)cc1C(N)=O | 1130 s
CCC1Oc2ccc(S(=O)(=O)N3CCC(C(=O)N(C)C4CCCCC4)CC3)cc2NC1=O (centres undefined) | 917 s
CCc1sc(NC(=O)Cn2nc3c(cc2=O)CCCC3)nc1C(=O)OC | 764 s

Compound | RP-LC retention time
COc1ccc(NC(=O)N2CCCC2c2nc(-c3cccc(Cl)c3)no2)c(OC)c1 (centres undefined) | 1070 s
Cc1ccccc1OCC(=O)Nc1nc(-c2ccccc2)cs1 | 1110 s
CCCNC(=O)N(C1CCOCC1)C1CCN(C(=O)Nc2cccc(C)c2C)CC1 | 732 s
Cc1ccc(C)c(C(=O)N2CCN(c3nc4cccnc4o3)CC2)c1 | 765 s
COc1ccc(NC(=O)C2CCN(S(=O)(=O)c3cc(C(=O)N4CCOCC4)cs3)CC2)cc1 | 721 s
CCOc1ccccc1NC(=O)N1CCN(c2ccc(=O)n(-c3ccc(C)cc3)n2)CC1 | 915 s
Cn1c(=O)c2cc(C(=O)NCCCc3ccccc3)sc2n(C)c1=O | 765 s
CC(C)NC(=O)Cn1cccc(-c2nc(-c3ccc(F)cc3)no2)c1=O | 735 s
Cc1ccc(S(=O)(=O)N(C)CC2CCOCC2)cc1F | 850 s
CCN1CCCn2cc(S(=O)(=O)NCc3ccc(Cl)cc3)cc2C1=O | 767 s
CCCOc1nccnc1NC1CCN(C(=O)c2ccsc2)CC1 | 713 s
CCOc1ccc(-c2nc(CN(c3ccccc3)S(=O)(=O)c3cccs3)c(C)o2)cc1OC | 1120 s
Cc1cc2c(cc1CNC(=O)Cn1c(C(F)(F)F)nc3ccccc31)OCCCO2 | 849 s
CCn1ccc2sc(C)c(C(=O)NCc3ccc(OC)cc3OC)c2c1=O | 814 s
Cc1c(C(=O)NCCCN2CCOCC2)sc2ncnc(N3CCN(c4ccccn4)CC3)c12 | 558 s
Cc1ccc2c(c1)NC1(CCN(S(=O)(=O)c3ccccc3F)CC1)c1cccn1-2 | 881 s
O=S(=O)(c1c[nH]c2ncccc12)N1CCN(c2ccccc2)CC1 | 805 s
Cc1ccc2[nH]cc(CCNC(=O)CC3CCN(C(=O)C4CCCCC4)CC3)c2c1 | 850 s
CC(C)n1c(=O)c2ccccc2n(Cc2nc(-c3ccccc3Br)no2)c1=O | 1140 s
CNC(=O)c1ccc(-c2nc3cc(NS(=O)(=O)c4ccccc4Cl)ccc3n2C)cc1 | 633 s
